The numbers were not newly measured in patent US4076804A, “Erythromycin therapy” (Abbott Laboratories, priority 1976, dated 1978), which cites them from elsewhere.

The structures appear in SMILES notation.

The conditions of the data set: general statement, no test described.

As for `CCOC(=O)CCC(=O)O[C@H]1[C@H](O[C@@H]2[C@@H](C)[C@H](O[C@H]3C[C@@](C)(OC)[C@@H](O)[C@H](C)O3)[C@@H](C)C(=O)O[C@H](CC)[C@@](C)(O)[C@H](O)[C@@H](C)C(=O)[C@H](C)C[C@@]2(C)O)O[C@H](C)C[C@@H]1N(C)C` [EES, erythromycin ethyl succinate], the toxicity result is reported as “very low toxicity”.
